Assay results reported in the Kinase Knowledgebase extract (Sharma et al. 2016).
Several values for one entry are separate records, joined by “and”; a condition that tells them apart may be missing. Equal values may be shown once.

How the values were obtained:
[1] = target: PIK3CA (human) (UniProt P42336); experiment: Inhibition of PIK3CA Kinase Activity
[2] = target: PIK3CA (human), P42336 [Antiproliferation of PI3K Mutated BT20 Cells]; experiment: Cell-Based Assay
Chain of PIK3CA (human), P42336 [Antiproliferation of PI3K Mutated BT20 Cells] (P42336 whole entry, looked up, change not shown): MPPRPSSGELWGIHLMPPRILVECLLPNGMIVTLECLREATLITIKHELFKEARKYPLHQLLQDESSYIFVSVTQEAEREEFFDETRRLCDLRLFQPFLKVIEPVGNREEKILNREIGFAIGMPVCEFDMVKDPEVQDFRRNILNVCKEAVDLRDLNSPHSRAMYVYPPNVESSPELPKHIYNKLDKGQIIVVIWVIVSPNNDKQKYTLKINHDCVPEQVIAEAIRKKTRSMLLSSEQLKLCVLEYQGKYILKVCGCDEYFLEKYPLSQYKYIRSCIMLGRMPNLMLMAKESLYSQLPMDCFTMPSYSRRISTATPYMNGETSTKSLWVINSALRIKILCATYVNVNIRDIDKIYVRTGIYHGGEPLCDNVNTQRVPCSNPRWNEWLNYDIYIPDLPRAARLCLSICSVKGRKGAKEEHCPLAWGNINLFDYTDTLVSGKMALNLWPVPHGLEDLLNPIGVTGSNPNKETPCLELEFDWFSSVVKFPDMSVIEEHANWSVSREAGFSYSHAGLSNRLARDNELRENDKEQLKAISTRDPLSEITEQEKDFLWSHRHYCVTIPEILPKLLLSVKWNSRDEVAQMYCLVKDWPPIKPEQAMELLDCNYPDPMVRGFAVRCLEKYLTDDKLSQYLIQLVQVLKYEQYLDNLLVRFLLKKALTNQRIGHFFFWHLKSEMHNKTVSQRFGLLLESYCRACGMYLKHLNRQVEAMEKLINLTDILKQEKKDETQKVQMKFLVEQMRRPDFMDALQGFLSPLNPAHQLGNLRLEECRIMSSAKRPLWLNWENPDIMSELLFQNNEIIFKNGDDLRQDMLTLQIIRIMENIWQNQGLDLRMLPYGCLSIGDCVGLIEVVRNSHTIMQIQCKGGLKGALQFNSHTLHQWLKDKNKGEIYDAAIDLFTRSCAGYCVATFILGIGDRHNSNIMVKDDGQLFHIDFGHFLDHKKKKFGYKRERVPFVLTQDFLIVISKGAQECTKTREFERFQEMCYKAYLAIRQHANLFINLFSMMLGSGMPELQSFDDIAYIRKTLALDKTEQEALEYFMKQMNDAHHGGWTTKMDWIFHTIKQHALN

Chain of PIK3CA (human) (P42336 whole entry, looked up): as the sequence (P42336 whole entry, looked up, change not shown) above

| IC50 [1] | IC50 [2] [nM] | SMILES |
| --- | --- | --- |
| 18.5 nM | 19.9 | Cc1nc(N)nc2c1cc(-c1cn[nH]c1)c(=O)n2C1CCOCC1 |
| 9.4 nM | 71.8 | Cc1nc(N)nc2c1cc(-c1ccc(OC(C)C)nc1)c(=O)n2[C@H]1CC[C@H](O)CC1 |
| 46 nM | 10000 | CNc1nc(C)c2cc(-c3cnn(CC(F)F)c3)c(=O)n(C3CCCC3)c2n1 |
| 39 nM | 314 | CNc1nc(C)c2cc(-c3cnn(C)c3)c(=O)n(C3CCCC3)c2n1 |
| 4.3 nM | 19.3 | COc1ccc(-c2cc3c(C)nc(N)nc3n(C3CCC(=O)CC3)c2=O)cn1 |
| 810 nM | 10000 | Cc1nc(N)nc2c1cc(-c1cnc(O)nc1)c(=O)n2C1CCOCC1 |
| 67 nM | 181 | CNc1nc(C)c2cc(-c3c[nH]c(C)n3)c(=O)n(C3CCCC3)c2n1 |
| 0.48 nM | 2.76 | Cc1nc(N)nc2c1cc(-c1cnc3[nH]ccc3c1)c(=O)n2C1CCCC1 |
| 18 nM | 475 | Cc1nc(N)nc2c1cc(-c1cnn(C)c1)c(=O)n2[C@H]1CC[C@H](O)CC1 |
| 1430 nM | 9010 | Cc1nc(N)nc2c1cc(-c1cccnc1N)c(=O)n2C1CCCC1 |
| 4.78 nM | 14.7 | CNc1nc(C)c2cc(-c3cccc(CO)c3)c(=O)n(C3CCCC3)c2n1 |
| 830 nM | 5750 | COc1ccc(-c2cc3c(C)nc(NCC(C)(C)O)nc3n(C3CCCC3)c2=O)cn1 |
| 15 nM | 45.9 | COc1ccc(-c2cc3c(C)nc(N)nc3n(C3CCCC3)c2=O)cc1F |
| 1.01 nM | 3.05 | CCNc1nc(C)c2cc(-c3cccc(O)c3)c(=O)n(C3CCCC3)c2n1 |
| 856 nM | 5480 | COc1ncccc1-c1cc2c(C)nc(N)nc2n(C2CCCC2)c1=O |
| 93 nM | 5.08 | Cc1nc(N)nc2c1cc(-c1cnn(C(=O)OC(C)(C)C)c1)c(=O)n2N1CCCC1 |
| 3.08 nM | 26.3 | CCNc1nc(C)c2cc(-c3ccc(O)c(OC)c3)c(=O)n(C3CCCC3)c2n1 |
| 29.7 nM | 9.1 | Cc1nc(N)nc2c1cc(-c1cn[nH]c1)c(=O)n2[C@H]1CC[C@@H](OCCO)CC1 |
| 7.58 nM | 33.5 | Cc1nc(N)nc2c1cc(-c1cn[nH]c1)c(=O)n2[C@H]1CC[C@H](OCCO)CC1 |
| 23 nM | 305 | CNc1nc(C)c2cc(-c3cncnc3)c(=O)n(C3CCCC3)c2n1 |
| 2.7 nM | 21.2 | CCOc1ccc(-c2cc3c(C)nc(N)nc3n([C@H]3CC[C@H](O)CC3)c2=O)cn1 |
| 20 nM | 33.9 | Cc1nc(N)nc2c1cc(-c1cncc(N)n1)c(=O)n2C1CCCC1 |
| 18 nM | 15.2 | Cc1nc(N)nc2c1cc(-c1cn[nH]c1)c(=O)n2C1CCC(C)(O)CC1 (stereo unspecified) |
| 6.7 nM | 169 | Cc1nc(N)nc2c1cc(-c1cn[nH]c1)c(=O)n2[C@H]1CC[C@H](O)CC1 |
| 89 nM | 101 | Cc1nc(N)nc2c1cc(-c1cnn(CC(C)(C)O)c1)c(=O)n2C1CCCC1 |
| 792 nM | 1390 | CCNc1nc(C)c2cc(-c3cccc(OC)c3)c(=O)n(C3CCCC3)c2n1 |
| 8 nM | 2.58 | CNc1nc(C)c2cc(-c3cn[nH]c3)c(=O)n(C3CCCC3)c2n1 |
| 2 nM | 9.57 | COc1ncc(-c2cc3c(C)nc(N)nc3n(C3CCCC3)c2=O)cn1 |

Continued, molecule first:

| SMILES | IC50 [1] | IC50 [2] [nM] |
| --- | --- | --- |
| CCNc1nc(C)c2cc(-c3cnc4[nH]ccc4c3)c(=O)n(C3CCCC3)c2n1 | 1.77 nM | 46.1 |
| COc1ccc(-c2cc3c(C)nc(N)nc3n([C@H]3C[C@H](OCC(N)=O)C3)c2=O)cn1 | 4.72 nM | 33.5 |
| Cc1nc(N)nc2c1cc(-c1cnc3[nH]ccc3c1)c(=O)n2C1CCOCC1 | 3.7 nM | 15.3 |
| CCNc1nc(C)c2cc(CCC(=O)Nc3ncc[nH]3)c(=O)n(C3CCCC3)c2n1 | 310 nM | 5710 |
| CNc1nc(C)c2cc(-c3ncccc3F)c(=O)n(C3CCCC3)c2n1 | 2100 nM | 8300 |
| Cc1nc(N)nc2c1cc(-c1cc[nH]n1)c(=O)n2[C@H]1CC[C@H](O)CC1 | 10 nM | 25.2 |
| Cc1nc(N)nc2c1cc(-c1cnc3[nH]ccc3c1)c(=O)n2C1CN(C(=O)OC(C)(C)C)C1 | 38 nM | 256 |
| Cc1nc(N)nc2c1cc(-c1cnc3[nH]ccc3c1)c(=O)n2CC1CCCO1 (stereo unspecified) | 5.4 nM | 36.6 |
| CCNc1nc(C)c2cc(-c3cnc(OC)nc3)c(=O)n([C@H]3CC[C@H](O)CC3)c2n1 | 1.59 nM | 20.6 |
| CNc1nc(C)c2cc(C(=O)Nc3ccon3)c(=O)n(C3CCCC3)c2n1 | 5 nM | 72.2 |
| COc1ccc(-c2cc3c(C)nc(N)nc3n(C3CCN(C(C)=O)C3)c2=O)cn1 (stereo unspecified) | 7 nM | 127 |
| COc1ccc(-c2cc3c(C)nc(N)nc3n(CC3CCOCC3)c2=O)cn1 | 15 nM | 88.4 |
| COc1ccc(-c2cc3c(C)nc(N)nc3n(CC3(F)CCOCC3)c2=O)cn1 | 18 nM | 316 |
| Cc1nc(N)nc2c1cc(-c1ccc(N(C)C)nc1)c(=O)n2[C@H]1CC[C@H](OCCO)CC1 | 9.28 nM | 12.1 |
| CNc1nc(C)c2cc(-c3cn[nH]c3)c(=O)n(CC3CCOC3)c2n1 (stereo unspecified) | 6 nM | 22.1 |
| COc1ncc(-c2cc3c(C)nc(N)nc3n(C(C)C)c2=O)cn1 | 2.2 nM | 49.3 |
| COc1ncc(-c2cc3c(C)nc(N)nc3n([C@H]3CC[C@H](OCCO)CC3)c2=O)cc1F | 1.44 nM | 5.3 |
| Cc1nc(N)nc2c1cc(-c1cn[nH]c1)c(=O)n2CC(F)(F)F | 188 nM | 236 |
| COc1ccc(-c2cc3c(C)nc(N)nc3n([C@H]3C[C@H](OCCO)C3)c2=O)cn1 | 10.2 nM | 50.8 |
| COc1ccc(-c2cc3c(C)nc(N)nc3n(CCC3CC3)c2=O)cn1 | 11 nM | 94.2 |
| COc1ncc(-c2cc3c(C)nc(N)nc3n([C@H]3C[C@H](OCC(N)=O)C3)c2=O)cc1F | 2.14 nM | 12.6 |
| Cc1nc(N)nc2c1cc(-c1cnc3[nH]ccc3c1)c(=O)n2C1CC1 | 17 nM | 138 |
| COc1ccc(-c2cc3c(C)nc(N)nc3n(C3CN(C(=O)OC(C)(C)C)C3)c2=O)cn1 | 29 nM | 318 |
| CO[C@H]1CC[C@H](n2c(=O)c(Br)cc3c(C)nc(N)nc32)CC1 | 31 nM | 64 |
| Cc1nc(N)nc2c1cc(-c1cnc3[nH]ccc3c1)c(=O)n2[C@H]1CC[C@H](O)CC1 | 1.3 nM | 31.9 |

| SMILES | IC50 [1] | IC50 [2] [nM] |
| --- | --- | --- |
| CCNc1nc(C)c2cc(-c3cnc(OC)c(F)c3)c(=O)n([C@H]3CC[C@H](O)CC3)c2n1 | 0.788 nM | 5.1 |
| Cc1nc(N)nc2c1cc(Br)c(=O)n2[C@H]1CC[C@@H](O)CC1 | 130 nM | 228 |
| Cc1nc(N)nc2c1cc(Br)c(=O)n2[C@H]1CC[C@H](OCCO)CC1 | 55.2 nM | 96.5 |
| Cc1nc(N)nc2c1cc(-c1ccc(N3CCCC3)nc1)c(=O)n2[C@H]1CC[C@H](O)CC1 | 19 nM | 4.92 |
| COc1ccc(-c2cc3c(C)nc(N)nc3n([C@@H]3CC[C@H](O)C3)c2=O)cn1 | 11 nM | 82.9 |
| COc1ccc(-c2cc3c(C)nc(NCC(F)F)nc3n([C@H]3CC[C@H](O)CC3)c2=O)cn1 | 12 nM | 46.8 |
| COc1ccc(-c2cc3c(C)nc(N)nc3n(CC(C)(C)F)c2=O)cn1 | 30 nM | 437 |
| Cc1nc(N)nc2c1cc(-c1ccc(C#N)nc1)c(=O)n2[C@H]1CC[C@H](O)CC1 | 470 nM | 2690 |
| Cc1nc(N)nc2c1cc(Br)c(=O)n2[C@H]1CC[C@H](O)CC1 | 44 nM | 305 |
| COc1ccc(-c2cc3c(C)nc(N)nc3n(C3CCNC3)c2=O)cn1 (stereo unspecified) | 200 nM | 671 |
| Cc1nc(N)nc2c1cc(-c1cnc(O)nc1)c(=O)n2C(C)C | 300 nM | 2520 |
| Cc1nc(N)nc2c1cc(-c1cnc3[nH]ccc3c1)c(=O)n2[C@@H]1CC[C@H](O)C1 | 1.2 nM | 20.4 |
| COc1ccc(-c2cc3c(C)nc(N)nc3n(C(C)C)c2=O)cn1 | 11 nM | 64 |
| COc1ccc(-c2cc3c(C)nc(N)nc3n(CCN)c2=O)cn1 | 340 nM | 4530 |
| CCNc1nc(C)c2cc(CCC(=O)O)c(=O)n(C3CCCC3)c2n1 | 54 nM | 10000 |
| CO[C@H]1CC[C@H](n2c(=O)c(-c3cc[nH]n3)cc3c(C)nc(N)nc32)CC1 | 9.5 nM | 17.2 |
| Cc1nc(N)nc2c1cc(Br)c(=O)n2CC(C)(C)O | 680 nM | 2360 |
| CCn1nccc1NC(=O)c1cc2c(C)nc(N)nc2n([C@H]2CC[C@H](O)CC2)c1=O | 1.3 nM | 50.5 |
| Cc1nc(N)nc2c1cc(-c1ccc3cc[nH]c3n1)c(=O)n2[C@H]1CC[C@@H](O)CC1 | 1.6 nM | 25.4 |
| COc1ncc(-c2cc3c(C)nc(N)nc3n([C@H]3C[C@H](OCCO)C3)c2=O)cn1 | 6.65 nM | 93.5 |
| CNc1nc(C)c2cc(-c3ccc(O)c(OC)c3)c(=O)n(C3CCCC3)c2n1 | 1.57 nM | 3.82 |
| Cc1nc(N)nc2c1cc(Br)c(=O)n2C1CCC(=O)CC1 | 110 nM | 211 |
| CNc1nc(C)c2cc(-c3ccc(OC)nc3)c(=O)n(C(C)C)c2n1 | 110 nM and 21 nM | 95.2 |
| Cc1nc(N)nc2c1cc(-c1cnc3[nH]ccc3c1)c(=O)n2C(C)C | 2.3 nM | 6.77 |
| Cc1nc(N)nc2c1cc(Br)c(=O)n2CC1CCCO1 (stereo unspecified) | 100 nM | 2130 |
